From publication PMC9958709 (Pharmaceuticals, 2023) come the findings set out here.

The target of assay [1] is butyrylcholinesterase (BuChE) (Homo sapiens, UniProt P06276). Briefly: biochemical. It counts as biochemical. Particulars: for IC50: read-out: BuChE IC50 (µM ± SEM). The procedure: (§1) The AChE/(BuChE) inhibitory test was measured using a spectrophotometric method developed by Elman et al.. A buffer solution containing phosphate (pH 8.0) of volume 140 μL; 20 μL of each AChE/BuChE solution; and 20 μL of the test sample were incubated at room temperature for 15 min. […] was used to start the reaction, followed by the addition of DTNB. ATCh or BTCh hydrolyzed the reaction of DTNB with thiocholine for 15 min; unrestricted by AChE and BuChE enzymatic hydrolysis. […] Each sample’s inhibitory activity was measured in terms of IC50 ([…]) or μM. For all substances, the IC50 values were derived using a generic graph.
Chain of butyrylcholinesterase (BuChE) (P06276 29-602): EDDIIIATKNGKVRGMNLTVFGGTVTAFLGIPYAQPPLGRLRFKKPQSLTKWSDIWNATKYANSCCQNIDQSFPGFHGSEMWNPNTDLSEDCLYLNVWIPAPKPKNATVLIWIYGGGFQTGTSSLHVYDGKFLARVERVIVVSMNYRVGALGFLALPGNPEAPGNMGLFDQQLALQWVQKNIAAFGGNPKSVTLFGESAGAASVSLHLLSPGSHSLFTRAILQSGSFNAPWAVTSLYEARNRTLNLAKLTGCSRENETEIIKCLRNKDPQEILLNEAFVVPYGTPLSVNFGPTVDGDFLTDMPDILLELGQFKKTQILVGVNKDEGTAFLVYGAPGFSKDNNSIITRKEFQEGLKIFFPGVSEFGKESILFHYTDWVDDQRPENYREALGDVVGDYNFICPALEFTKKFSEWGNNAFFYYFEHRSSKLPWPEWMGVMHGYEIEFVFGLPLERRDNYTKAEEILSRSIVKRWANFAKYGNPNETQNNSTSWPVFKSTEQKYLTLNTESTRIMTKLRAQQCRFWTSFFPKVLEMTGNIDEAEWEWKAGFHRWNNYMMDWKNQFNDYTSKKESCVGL

For assay [2], the target named is acetylcholinesterase (AChE) (Homo sapiens, UniProt P22303). The assay can be described thus: biochemical. In kind it is biochemical. Particulars: for IC50: read-out: AChE IC50 (µM ± SEM). The procedure: as §1
Chain of acetylcholinesterase (AChE) (P22303 32-614, species assumed): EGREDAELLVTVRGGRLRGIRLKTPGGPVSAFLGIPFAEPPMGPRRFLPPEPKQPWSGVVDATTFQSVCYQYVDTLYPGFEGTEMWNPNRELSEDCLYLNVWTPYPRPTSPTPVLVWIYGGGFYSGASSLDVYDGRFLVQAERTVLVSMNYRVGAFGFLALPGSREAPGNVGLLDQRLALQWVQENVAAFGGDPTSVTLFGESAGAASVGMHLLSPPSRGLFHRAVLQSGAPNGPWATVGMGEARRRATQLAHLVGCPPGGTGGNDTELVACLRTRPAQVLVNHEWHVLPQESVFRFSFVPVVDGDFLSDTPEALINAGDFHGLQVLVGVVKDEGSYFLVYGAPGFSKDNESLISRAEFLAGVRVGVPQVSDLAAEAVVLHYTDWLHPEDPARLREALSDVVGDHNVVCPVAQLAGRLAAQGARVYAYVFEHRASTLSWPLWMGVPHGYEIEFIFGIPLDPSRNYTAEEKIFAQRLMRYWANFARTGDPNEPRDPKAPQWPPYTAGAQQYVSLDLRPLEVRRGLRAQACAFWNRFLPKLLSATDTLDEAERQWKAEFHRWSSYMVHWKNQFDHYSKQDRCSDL

Turning to `COc1ccc2[nH]c(-c3ccc([N+](=O)[O-])cc3)nc2c1` [Compound 1, 5-Methoxy-2-(4-Nitrophenyl)-1H-Benzo[d]-Imidazole], the IC50 in assay [1] was found to be 1.6 ± 0.1 µM; in assay [2] it was 2.1 ± 0.1 µM.

For the compound `COc1ccc2[nH]c(-c3cccc([N+](=O)[O-])c3)nc2c1` [Compound 2, 5-Methoxy-2-(3-Nitrophenyl)-1H-Benzo[d]-Imidazole], the values for the concentration for half-maximal inhibition (IC50) in assay [1] and in assay [2] were 5.9 ± 0.1 µM and 5.1 ± 0.1 µM, respectively.

As to `COc1ccc2[nH]c(-c3ccc(Cl)c(Cl)c3)nc2c1` [Compound 3], the IC50 amounted to 0.08 ± 0.001 µM in assay [1] and 0.05 ± 0.001 µM in assay [2].

For the compound `COc1ccc2[nH]c(-c3ccccc3[N+](=O)[O-])nc2c1` [Compound 4], the IC50 in assay [1] amounted to 3.6 ± 0.1 µM; in assay [2] it was 3.4 ± 0.1 µM.

On to `COc1ccc2[nH]c(-c3ccc4ccccc4c3)nc2c1` [Compound 5], for which the figures for the IC50 in assay [1] and in assay [2] were 25.8 ± 0.4 µM and 25.3 ± 0.4 µM, respectively.

On to `COc1ccc2[nH]c(-c3ccc(C)cc3C)nc2c1` [Compound 6], for which the results for the IC50 in assay [1] and in assay [2] were 5.1 ± 0.2 µM and 4.1 ± 0.1 µM, respectively.

As for `COc1ccc2[nH]c(-c3ccc(OCc4ccccc4)cc3)nc2c1` [Compound 7], the IC50 in assay [1] is 5.9 ± 0.1 µM; in assay [2], 5.8 ± 0.1 µM.

In the case of `COc1ccc2[nH]c(-c3ccc(N(C)C)cc3)nc2c1` [Compound 8], the IC50 in assay [1] was 4.7 ± 0.1 µM; in assay [2] it was 6.8 ± 0.2 µM.

As for `COc1ccc2[nH]c(-c3ccc(OC)c(O)c3)nc2c1` [Compound 9], the IC50 worked out at 2.1 ± 0.1 µM in assay [1] and 2.3 ± 0.1 µM in assay [2].

As for `COc1ccc2[nH]c(-c3cc(Cl)cc(Cl)c3O)nc2c1` [Compound 10], the IC50 in assay [1] amounted to 0.4 ± 0.001 µM; in assay [2], 0.1 ± 0.001 µM.

Consider `COc1ccc2[nH]c(-c3ccc(Cl)cc3Cl)nc2c1` [Compound 11], for which the IC50 was 0.3 ± 0.001 µM in assay [1] and 0.2 ± 0.001 µM in assay [2].

With `COc1ccc2nc(-c3ccc(-c4nc5ccc(OC)cc5[nH]4)cc3)[nH]c2c1` [Compound 12], the IC50 in assay [1] was found to be 5.8 ± 0.1 µM; in assay [2], 5.1 ± 0.1 µM.

With `COc1ccc2[nH]c(-c3c4ccccc4cc4ccccc34)nc2c1` [Compound 13], the “inhibition of butyrylcholinesterase, in words” value in assay [1] was “did not show any activity”. The “inhibition of acetylcholinesterase, in words” value in assay [2] was “did not show any activity”.

In the case of `COc1ccc2[nH]c(-c3c(O)ccc4ccccc34)nc2c1` [Compound 14], the “inhibition of butyrylcholinesterase, in words” value in assay [1] is “did not show any activity”. The “inhibition of acetylcholinesterase, in words” value in assay [2] is recorded as “did not show any activity”.

In the case of `COc1ccc2[nH]c(-c3ccc(O)cc3)nc2c1` [Compound 15], the IC50 in assay [1] came out at 0.9 ± 0.001 µM; in assay [2], 0.8 ± 0.001 µM.

As for `COc1ccc2[nH]c(-c3cccc(O)c3)nc2c1` [Compound 16], the values for the IC50 in assay [1] and in assay [2] were 2.1 ± 0.1 µM and 1.3 ± 0.1 µM, respectively.

In the case of `COc1ccc2[nH]c(-c3cc(Br)ccc3OC)nc2c1` [Compound 17], the IC50 in assay [1] is 3.9 ± 0.1 µM; in assay [2], 6.1 ± 0.1 µM.

Take `CCOc1ccc(-c2nc3cc(OC)ccc3[nH]2)cc1OC` [Compound 18]: the IC50 in assay [1] was found to be 9.8 ± 0.3 µM; in assay [2], 11.3 ± 0.3 µM.

In the case of `COc1ccc(-c2nc3cc(OC)ccc3[nH]2)c(OC)c1` [Compound 19], the IC50 in assay [1] worked out at 6.8 ± 0.2 µM; in assay [2], 9.2 ± 0.2 µM.

As to `COc1ccc2[nH]c(-c3cc(OC)c(Br)cc3OC)nc2c1` [Compound 20], in assay [1], the “inhibition of butyrylcholinesterase, in words” value was “did not show any activity”. The “inhibition of acetylcholinesterase, in words” value in assay [2] is listed as “did not show any activity”.

Consider `COc1ccc2[nH]c(-c3cc(OC)c(O)c(OC)c3)nc2c1` [Compound 21], for which the values for the IC50 in assay [1] and in assay [2] were 2.7 ± 0.1 µM and 2.1 ± 0.1 µM, respectively.

Broadly, the IC50 is the point on the concentration scale where inhibition reaches its midpoint.
